Tested on: glutamine synthetase (GS)
Assay: glutamine synthetase inhibition assay (glutamine synthetase activity assay kit, Abcam)
Assay type: biochemical
Details: for Inhibition (%) of glutamine synthetase, Assay 1: Table S4, assay 1 of 3; for Inhibition (%) of glutamine synthetase, Assay 1 / Inhibition (%) of glutamine synthetase, Assay 2 / Inhibition (%) of glutamine synthetase, Assay 3: 1 mM inhibitor final concn, enzyme pre-incubated with inhibitor 37 °C 10 min, colorimetric ADP detection, A570 (average of 3 readings), background subtracted, vs enzyme control; for Inhibition (%) of glutamine synthetase, Assay 1 / Inhibition (%) of glutamine synthetase, Assay 2 / Inhibition (%) of glutamine synthetase, Assay 3 / Average inhibition (%) of glutamine synthetase: reaction 37 °C 60 min; for Inhibition (%) of glutamine synthetase, Assay 2: Table S5, assay 2 of 3; for Inhibition (%) of glutamine synthetase, Assay 3: Table S6, assay 3 of 3; for Average inhibition (%) of glutamine synthetase: Table S7, average of assay 1, 2 and 3 (mean of 3 independent experiments), 1 mM inhibitor, pre-incubation 37 °C 10 min, A570; for inhibitory activity on glutamine synthetase compared with MSO: screen at 1 mM inhibitor concentration (Fig. 4), comparison in words
Description: Assays were performed at 1 mM inhibitor concentration using a glutamine synthetase activity assay kit (Abcam).
Procedure f or the glutamine synthetase inhibition assay (Figure 4)
In this assay, glutamine synthetase catalyzesthe transformation from g lutamate and ATP t o g lutamine and ADP. ADP in the subsequent reaction, in presence of ADP converter, ADP d eveloper and ADP pr obe , forms a colorimetric product that is measured at absorbance 570 nm.
1. Stock solutions of glutamine synthetase, ATP, ADP converter, and ADP developer were prepared according to the protocol by Abcam: https://www.abcam.com/ps/products/284/ab284572/documents/Glutamine-Synthetase- Activity-Assay- […]
GS assay buffer, glutamate, and ADP probe were used as supplied.
2. Glutamine synthetase (2 µL ) was pre- incubated with methionine sulfoximine (MSO) (2 µL, 10 mM, 1 mM final concn) and methionine sulfoximine peptides 1b -8b (2 µL, 10 mM, 1 mM final concn) at 37 °C for 10 min, protected from light. For enzyme control, GS assay buffer (2 µL ) was used instead of MSO or peptides 1b -8b. For background control, GS assay buffer (4 µL) without enzyme was used.
3. Substrate mix was prepared by mixing GS assay buffer (96 µL ), glutamate (24 µL ), and ATP (24 µL ).
The resulting substrate mix (12 µL) was added to each sample.
4. ADP reactio n mix was prepared by mixing GS assay buffer (42 µL), ADP probe (6 µL), ADP converter (6 µL), and ADP developer (6 µL ). The resulting ADP reaction mix (4 µL ) was added to each sample. The total reaction volume for each sample is 20 µL.
5. After incubation of the reaction mixture at 37 °C for 60 mi n , the absorbance at 570 nm (A570) was measured on a Thermo Scientific NanoDrop 2000c spectrophotometer. For each sample, A570 was measure […]
6. The background control reading was subtracted from test sample readings and enzyme control readings.
7. Inhibition of glutamine synthetase was det er mi ned by comparing A570 (test sample) and A570 ( enzyme
Percentage inhibition = A570 (enzyme control)−A570 (test sample)A570 (enzyme control) × 100%
8. The assay was repeated for 3 times and the percentage inhibition values are me a n ± S D of 3 independent

Inhibition (%) of glutamine synthetase, Assay 1	Inhibition (%) of glutamine synthetase, Assay 2	Inhibition (%) of glutamine synthetase, Assay 3	Average inhibition (%) of glutamine synthetase	inhibitory activity on glutamine synthetase compared with MSO	Compound
1.7%	3.1%	3.7%	2.8%	–	Ac-RPKPQQFFGLM-NH2 (substance P) [7b]
35.3%	33.6%	36.1%	35.0%	higher than that observed for MSO	Ac-SYSMEHFRWGKPV-NH2 (α-MSH) [8b]
16.8%	17.2%	19.0%	17.7%	–	Ac-MGDFQ-NH2 [1b]
28.6%	26.2%	24.1%	26.3%	higher than that observed for MSO	Ac-MGRFTINP-NH2 [6b]
9.5%	13.0%	12.1%	11.5%	–	Ac-FPQSGM-NH2 [5b]
29.2%	28.6%	33.0%	30.3%	higher than that observed for MSO	Ac-MGKFQ-NH2 [2b]
13.3%	15.5%	14.3%	14.4%	–	Ac-VGMSWP-NH2 [4b]
0.9%	1.0%	0.8%	–	–	Ac-YGMLNP-NH2 [3b]

Compound	Inhibition (%) of glutamine synthetase, Assay 1	Inhibition (%) of glutamine synthetase, Assay 2	Inhibition (%) of glutamine synthetase, Assay 3	Average inhibition (%) of glutamine synthetase	inhibitory activity on glutamine synthetase compared with MSO
CS(=N)(=O)CC[C@H](N)C(=O)O (some centres unmarked) [MSO, methionine sulfoximine]	18.1%	18.8%	19.2%	18.7%	–
